We go through one molecule from US7687530B2, “Inhibition of chronic tissue transplant rejection” (Genzyme Corporation, priority 2002, dated 2010).

Common to all, as to format: in vivo
The subject of test [1] is heart from C57/BL6 mice transplanted into Balb/c recipient mice (total MHC mismatch). Description: Transplant rejection in total MHC mismatch heart transplant mouse model (Example 3). The settings on record: Compound 1 alone 75 mg/kg/day s.c. for fourteen days; p<0.001; untreated controls rejected after ten days. The procedure:
The ability of Compound 1 to inhibit transplant rejection in a mouse model was tested. Specifically, the heart from C57/BL6 mice was transplanted into Balb/c recipient mice (total MHC mismatch) using standard protocol described in Hancock, W. W., et al. “Costimulatory function and expression of CD40 ligand, CD80 and CD86 in vascularized murine cardiac allograft rejection” Proc. Natl. Acad. Sci. USA 93: 13967 (1996). Following surgery, the mice were divided into the following treatment groups: • Group I is a control group that was untreated. • Group II was treated with Compound 1 at a dose of 75 mg/kg/day subcutaneously for fourteen days following surgery. Control mice receiving no treatment reproducibly experienced rejection of their transplanted hearts after only ten days.

The test system of test [2] is fully mismatched cardiac allografts (C57/BL 6 donor with Balb/C recipient). Put plainly: Heterotypic allogeneic heart transplant model with CD154 blockade, second mouse model (Example 2). The method, then: The ability of compound 1 to inhibit chronic transplant rejection was tested in a mouse heterotypic allogeneic heart transplant model in which acute allograft rejection was prevented with CD154 blockade as previously described (Hancock, W. W. et al. 1996. Proc. Natl. Acad. Sci. USA. 93:13967; and Yuan et al., Transplantation 73:1736). Briefly, this model consists of fully mismatched cardiac allografts (C57/BL 6 donor with Balb/C recipient). […] A third group in which acute rejection is blocked by administering a single 250 μg dose of anti-CD154 (anti-CD40 ligand) monoclonal antibody was established, and acute rejection (as evidenced by cessation of contraction of the transplanted heart) occurred in approximately 50% of recipient animals. […] These include profound athlerosclerotic blockages of heart arteries, cellular inflammation (immune cell infiltration into the heart muscle itself), and fibrotic scarring of the cardiac parenchyma. The hearts were subjected to a histopathological score. The histopathological scores (range 0-5 indicating severity of chronic rejection accelerated atherosclerosis, with 0 being normal blood vessel and 5 being fully occluded) are shown in FIG. 2. Thus the addition of anti-CD154 to this model offers certain similarities to the human transplant clinical condition in that acute rejection is managed (in this case with the anti-CD154 monoclonal antibody) so that chronic rejection pathology can be observed.

The subject of test [3] is hearts from donor B6.C-H2^bm12 mice transplanted into C57/BL6 recipient mice (MHC II mismatch). Put plainly: Chronic rejection of MHC class II mismatched heart transplants, first mouse model (Example 1). The procedure: The ability of Compound 1 to inhibit chronic transplant rejection in a mouse model was tested. Specifically, hearts from donor B6.C-H2^bm12 mice were transplanted into C57/BL6 recipient mice (MHC II mismatch) using standard protocol described in Hancock, W. W., et al. Proc. Natl. Acad. Sci. USA 93: 13967 (1996) and Yuan et al., Transplantation 73:1736, the entire teachings of which are incorporated herein by reference. Following surgery, the mice were divided into the following treatment groups with seven mice each:
Group I was a control group that was untreated.
Group II was treated with Compound 1 at a dose of 75 mg/kg/day subcutaneously for fourteen days following surgery.
At eight weeks following transplant surgery, the mice were sacrificed and evaluated for chronic rejection accelerated atherosclerosis. Briefly, transplanted hearts were fixed in formalin, embedded in paraffin and sectioned coronally. The sections were scanned for arterial blood vessels, which were subjected to a histopathological score. The histopathological scores (range 0-5 indicating severity of chronic rejection accelerated atherosclerosis, with 0 being normal blood vessel and 5 being fully occluded) are shown in FIG. 1. […] It is likely that increased bioavailability resulting from improved compound formulation will result in more complete protection from chronic rejection vasculopathy.

“Also recorded” adds a separate entry of the source.

As for `N#Cc1cccc(C(C(=O)NCC(c2ccccc2)c2ccccc2)N(CCc2c[nH]cn2)C(=O)c2ccccc2C(=O)c2ccccc2)c1` (centres unmarked) [Compound 1], the “delay in the onset of rejection” value in test [1] is “two to three”. Moreover, the “chronic rejection of transplanted hearts” value in test [2] (75 mg/kg/day Compound 1 for two weeks combined with single 250 μg anti-CD154 monoclonal antibody, 120 days post surgery) is listed as “inhibited”. Moreover, in test [2] (Compound 1 75 mg/kg daily s.c. for 14 days plus single dose anti-CD154, compared with anti-CD154 alone, more than 100 days post surgery), the “indicators of chronic graft rejection (atherosclerotic blockages, cellular inflammation, fibrotic scarring), histological evaluation” value is on record as “dramatic inhibition of all indicators of chronic rejection”. In addition, the “transplant recipient animals with lack of acute rejection” value in test [2] (Compound 1 75 mg/kg daily s.c. for 14 days plus single dose anti-CD154, for more than 100 days post surgery) came out at 100%. The “extension in transplant survival” value in test [2] (Compound 1 alone, untreated recipients rejected within 10 days) is reported as “about 20 days”. The “animals free of vasculopathy” value in test [3] (75 mg/kg/day s.c. for fourteen days, eight weeks after transplant, seven mice per group) is reported as 4/7. The “treated animals showing full involvement (vasculopathy)” value in test [3] (75 mg/kg/day s.c. for fourteen days, eight weeks after transplant, seven mice per group, possibly diminished exposure) is listed as “three”. In test [3] (75 mg/kg/day subcutaneously for fourteen days following surgery, evaluated eight weeks after transplant, averaged for all animals, vs untreated control), the “histological evidence of chronic rejection (histopathological score 0-5, chronic rejection accelerated atherosclerosis)” value was “inhibited; also recorded: significantly (p=0.0002) prevented histological evidence of chronic rejection”.
